Data as given in ChEMBL document CHEMBL4342426, “Structure-activity relationship of 4-azaindole-2-piperidine derivatives as agents against Trypanosoma cruzi” (Bioorg Med Chem Lett, 2020).
pIC50: −log10 of the molar value.

Key:
physchem = conditions: buffer, pH 7.4
Description: Lipophilicity, logD of compound at pH 7.4 by HPLC analysis

in vitro [1] = conditions: PAMPA
Description: Effective permeability of compound by PAMPA assay

Trypanosoma cruzi = test: microbe, parasite or virus in culture; conditions: Tulahuen CL2, MRC-5 SV2, 168 h
Description: Antitrypanosomal activity against Trypanosoma cruzi Tulahuen CL2 amastigotes infected in human MRC5 SV2 cells incubated for 7 days by chlorophenol red beta-D-galactopyranoside substrate based spectrophotometric assay

Macrophage = test: cells; conditions: Mus musculus, 72 h
Description: (§1) Cytotoxicity against mouse peritoneal Macrophage cells assessed as reduction in cell viability incubated for 3 days by fluorimetry

cells = conditions: Homo sapiens, MRC-5 SV2, 72 h
Description: (§2) Cytotoxicity against human MRC5 SV2 cells assessed as reduction in cell viability incubated for 3 days by fluorimetry

in vitro [2] = conditions: human, MRC5 SV2 cells
Description: Selectivity index, ratio of IC50 for human MRC5 SV2 cells to IC50 for Trypanosoma cruzi Tulahuen CL2 amastigotes infected in human MRC5 SV2 cells

in vitro [3] = conditions: human, MRC5 SV2 cells; remark: listed apart in the source
Description: as §2

[4] = test system: Trypanosoma brucei rhodesiense; test: microbe, parasite or virus in culture; conditions: STIB900, 72 h
Description: Antiprotozoal activity against Trypanosoma brucei rhodesiense STIB900 trypomastigotes incubated for 72 hrs by resazurin dye based fluorimetric analysis

in vitro [5] = conditions: mouse, peritoneal macrophages
Description: as §1

in vitro [6] = conditions: mouse, liver microsomes
Description: Metabolic stability in mouse liver microsomes assessed as intrinsic clearance at 0.5 uM incubated for 30 mins by LC-MS/MS analysis

Trypanosoma brucei = test: microbe, parasite or virus in culture; conditions: Squib 427, 72 h
Description: Antitrypanosomal activity against Trypanosoma brucei Squib 427 assessed as reduction in parasite growth incubated for 72 hrs by resazurin dye based fluorimetric analysis

in vitro [7] = conditions: human, liver microsomes
Description: Metabolic stability in human liver microsomes assessed as intrinsic clearance at 0.5 uM incubated for 30 mins by LC-MS/MS analysis

Leishmania infantum = test: microbe, parasite or virus in culture; conditions: for pIC50: MHOM/MA(BE)/67/ITMAP263, 120 h; for IC90: MHOM/MA(BE)/67/ITMAP263, in Mus musculus, 120 h
Description: Antileishmanial activity against amastigote stage of Leishmania infantum MHOM/MA(BE)/67/ITMAP263 infected in mouse peritoneal macrophage assessed as parasite growth inhibition incubated for 5 days by Giemsa staining based assay

in vitro [8] = conditions: mouse, liver microsomes; remark: listed apart in the source
Description: Metabolic stability in mouse liver microsomes assessed as fraction unbound at 0.5 uM incubated for 30 mins by LC-MS/MS analysis

logD (physchem) | Papp (in vitro [1]) | IC90 at 72 h (in vitro [3]) | pIC50 [4] | IC90 [4] | IC90 at 72 h (in vitro [5]) | CLint scaled at 0.5 h, 0.5 µM (in vitro [6]) | microsomal CLint at 0.5 h, 0.5 µM (in vitro [6]) | pIC50 (Trypanosoma brucei) | IC90 (Trypanosoma brucei) | CLint scaled at 0.5 h, 0.5 µM (in vitro [7]) | microsomal CLint at 0.5 h, 0.5 µM (in vitro [7]) | pIC50 (Leishmania infantum) | IC90 (Leishmania infantum) | fraction unbound at 0.5 h, 0.5 µM (in vitro [8]) | SMILES | pIC50 (Trypanosoma cruzi) | IC90 (Trypanosoma cruzi) | pIC50 (Macrophage) | pIC50 (cells) | selectivity ratio (in vitro [2])
2.62 | 1.58 ×10⁻⁶ cm/s | 64 µM | 4.36 | 64 µM | 64 µM | 5590 mL/min/kg | 1230 µL/min/mg | 4.19 | 64 µM | 68.7 mL/min/kg | 44.6 µL/min/mg | 4.19 | 64 µM | – | O=C(c1ccc(F)cc1)N1CCC(c2cc3ncccc3[nH]2)C1 (stereo unspecified) | 5.05 | 64 µM | 4.19 | 4.19 | 7.15
2.37 | 0.379 ×10⁻⁶ cm/s | 64 µM | 4.19 | 64 µM | 64 µM | – | – | 4.19 | 64 µM | 51.5 mL/min/kg | < 23 µL/min/mg | 4.19 | 64 µM | – | N#Cc1ccc(C(=O)N2CCCC(c3cc4ncccc4[nH]3)C2)cc1 (stereo unspecified) | 4.59 | 59 µM | 4.19 | 4.19 | 2.49
1.8 | 1.03 to 1.37 ×10⁻⁶ cm/s | 64 µM | 4.19 | 64 µM | 64 µM | 115 mL/min/kg | 31.9 µL/min/mg | 4.19 | 64 µM | 33.5 mL/min/kg | 27.5 µL/min/mg | 4.19 | 64 µM | 0.89 | Cn1nccc1C(=O)N1CCCC(c2cc3ncccc3[nH]2)C1 (stereo unspecified) | 4.19 | 64 µM | 4.19 | 4.19 | –
2.15 | 1.56 to 2.14 ×10⁻⁶ cm/s | 64 µM | 4.19 | 64 µM | 64 µM | 314 mL/min/kg | 78.8 µL/min/mg | 4.19 | 64 µM | < 31.2 mL/min/kg | < 23 µL/min/mg | 4.19 | 64 µM | 0.801 | Cc1nc(C)c(C(=O)N2CCCC(c3cc4ncccc4[nH]3)C2)o1 (stereo unspecified) | 4.19 | 64 µM | 4.19 | 4.19 | –
3.06 | 0.907 ×10⁻⁶ cm/s | 64 µM | 4.40 | 64 µM | 64 µM | ≥ 623 mL/min/kg | 195 µL/min/mg | 4.19 | 64 µM | ≥ 38 mL/min/kg | 35.2 µL/min/mg | 4.41 | 58.5 µM | – | O=C(c1ccc(F)cc1)N1CC=C(c2cc3ncccc3[nH]2)CC1 | 5.59 | 64 µM | 4.19 | 4.19 | 25.1
– | – | 32 µM | 4.51 | 32 µM | 32 µM | 2600 mL/min/kg | – | 4.49 | 32 µM | 110 mL/min/kg | – | 4.49 | 32 µM | – | COc1cccc(C(=O)N2CCCC(c3cc4ncccc4[nH]3)C2)c1OC (stereo unspecified) | 5.39 | 7.52 µM | 4.49 | 4.49 | 8
2.86 | 3.09 ×10⁻⁶ cm/s | 64 µM | 4.19 | 64 µM | 64 µM | 6690 mL/min/kg | 1750 µL/min/mg | 4.19 | 64 µM | 167 mL/min/kg | 129 µL/min/mg | 4.19 | 64 µM | – | Cc1ccoc1C(=O)N1CCCC(c2cc3ncccc3[nH]2)C1 (stereo unspecified) | 4.67 | 55.5 µM | 4.19 | 4.19 | 3
– | – | 32 µM | 4.60 | 32 µM | 32 µM | 1830 mL/min/kg | – | 4.49 | 32 µM | 32.7 mL/min/kg | – | 4.49 | 32 µM | – | O=C(c1cc(C2CC2)on1)N1CCCC(c2cc3ncccc3[nH]2)C1 (stereo unspecified) | 5.41 | 7.5 µM | 4.49 | 4.49 | 8.15
2.68 | 0.887 ×10⁻⁶ cm/s | 64 µM | 4.19 | 64 µM | 64 µM | 132 mL/min/kg | 24.9 µL/min/mg | 4.19 | 64 µM | 50.3 mL/min/kg | 27.9 µL/min/mg | 4.19 | 64 µM | 0.6 | O=C(c1ccc(C(F)(F)F)nc1)N1CCCC(c2cc3ncccc3[nH]2)C1 (stereo unspecified) | 4.19 | 64 µM | 4.19 | 4.19 | –
2.39 | 13.9 ×10⁻⁶ cm/s | 64 µM | 4.19 | 64 µM | 64 µM | 10500 mL/min/kg | 2900 µL/min/mg | 4.19 | 64 µM | 167 mL/min/kg | 135 µL/min/mg | 4.19 | 64 µM | 0.877 | O=C(c1ccccc1)N1CCCC(c2cn3ncccc3n2)C1 (stereo unspecified) | 4.19 | 64 µM | 4.19 | 4.19 | –
2.61 | 1.58 ×10⁻⁶ cm/s | 64 µM | 4.19 | 64 µM | 64 µM | 564 mL/min/kg | 137 µL/min/mg | 4.19 | 64 µM | < 32.2 mL/min/kg | < 23 µL/min/mg | 4.19 | 64 µM | – | COc1ccc(C(=O)N2CCCC(c3cc4ncccc4[nH]3)C2)cc1OC (stereo unspecified) | 5.05 | 64 µM | 4.19 | 4.19 | 7.15
– | – | 32 µM | 4.49 | 32 µM | 32 µM | 1000 mL/min/kg | – | 4.49 | 32 µM | 1620 mL/min/kg | – | 4.49 | 32 µM | – | COc1ccc2cc(C(=O)N3CCCC(c4cc5ncccc5[nH]4)C3)[nH]c2c1 (stereo unspecified) | 5.39 | 7.62 µM | 4.49 | 4.49 | 7.95
3.4 | 40.4 ×10⁻⁶ cm/s | 64 µM | 4.19 | 64 µM | 64 µM | 24700 mL/min/kg | 4010 µL/min/mg | 4.19 | 64 µM | – | – | 4.19 | 64 µM | 0.518 | O=C(c1ccccc1)N1CCN(c2nc3ccccc3s2)CC1 | 4.19 | 64 µM | 4.19 | 4.19 | –
1.97 | 2.43 ×10⁻⁶ cm/s | 64 µM | 4.19 | 64 µM | 64 µM | 763 mL/min/kg | 173 µL/min/mg | 4.19 | 64 µM | < 35 mL/min/kg | < 23 µL/min/mg | 4.19 | 64 µM | 0.723 | O=C(c1ccccc1)N1CCCC(c2nc3ncccc3[nH]2)C1 (stereo unspecified) | 4.19 | 64 µM | 4.19 | 4.19 | –
– | – | 64 µM | 4.26 | 64 µM | 64 µM | – | – | 4.19 | 64 µM | – | – | 4.19 | 64 µM | – | O=C(OCc1ccccc1)N1CCCC(c2cn3cccnc3n2)C1 (stereo unspecified) | 4.46 | 64 µM | 4.19 | 4.19 | 1.88
4.04 | 22.4 ×10⁻⁶ cm/s | 64 µM | 4.19 | 64 µM | 64 µM | > 11300 mL/min/kg | 3540 µL/min/mg | 4.19 | 64 µM | > 200 mL/min/kg | 185 µL/min/mg | 4.19 | 64 µM | – | CC(C)(C)OC(=O)N1CCCC(c2cn3nc(Cl)ccc3n2)C1 (stereo unspecified) | 4.53 | 60.3 µM | 4.19 | 4.19 | 2.15
3.07 | 0.881 ×10⁻⁶ cm/s | 64 µM | 4.19 | 64 µM | 64 µM | 832 mL/min/kg | 128 µL/min/mg | 4.19 | 64 µM | 278 mL/min/kg | 127 µL/min/mg | 4.19 | 64 µM | 0.493 | O=C(c1cc(C(F)(F)F)n[nH]1)N1CCCC(c2cc3ncccc3[nH]2)C1 (stereo unspecified) | 4.19 | 64 µM | 4.19 | 4.19 | –
